Tests used:
COX-1 = COX-1 (Homo sapiens, UniProt P23219); conditions: known; cited from earlier work
COX-2 = molecular target: T1, COX-2 (Homo sapiens, UniProt P35354); conditions: known; cited from earlier work
T1 sequence (P35354 18-604): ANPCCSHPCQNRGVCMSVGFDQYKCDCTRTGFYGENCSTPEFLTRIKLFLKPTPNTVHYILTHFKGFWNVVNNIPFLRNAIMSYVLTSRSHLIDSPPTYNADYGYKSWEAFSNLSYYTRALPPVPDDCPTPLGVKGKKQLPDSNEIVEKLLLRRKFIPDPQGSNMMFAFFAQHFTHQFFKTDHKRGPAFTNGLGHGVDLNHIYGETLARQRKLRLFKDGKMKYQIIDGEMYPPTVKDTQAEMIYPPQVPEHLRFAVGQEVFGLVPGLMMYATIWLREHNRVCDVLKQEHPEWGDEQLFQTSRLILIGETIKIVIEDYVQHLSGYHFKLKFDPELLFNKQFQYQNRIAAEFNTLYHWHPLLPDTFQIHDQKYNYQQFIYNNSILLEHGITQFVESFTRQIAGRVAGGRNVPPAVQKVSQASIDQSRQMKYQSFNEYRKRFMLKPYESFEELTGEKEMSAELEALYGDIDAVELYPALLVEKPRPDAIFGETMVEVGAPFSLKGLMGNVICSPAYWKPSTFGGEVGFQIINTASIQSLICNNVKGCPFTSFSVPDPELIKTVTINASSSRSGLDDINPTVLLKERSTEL

[1] = test system: BRMEC (Bovine Retinal Microvascular Endothelial Cell); test: VEGF-induced BRMEC capillary tube formation; assay type: cell-based
Method: A mixture of 8 vol of Vitrogen 100 (Cohesion; Palo Alto, Calif.), 1 vol. of 0.2N NaOH, and 1 vol. of 10× RPMI-1640 medium containing 5 μg/ml fibronectin and 5 μg/ml laminin was prepared and 400 μl was added to each well of a 24-well plate. After incubating for 3 hrs at 37° C. to solidify the gel, 10^4 BRMEC were added to each well and incubated in growth medium for 3 days. Then the medium was carefully aspirated and 200 μl of the gel solution was layered on top of the cells and incubated at 37° C. for 1 hr. Following addition of growth medium for 24 hrs, 2 ml of test medium containing serum-free (SF) medium plus VEGF or SF medium plus VEGF and AL06295A were added to each well. The gels were assessed 24 hrs later.
For quantitative analysis, six fields per treatment group were chosen from areas containing tubes; seven wells were used for each treatment. The lengths of the tubes were measured in digitized images, and the data are expressed in FIG. 2 as the total length per field of view in μm.

[2] = test system: BRMEC (Bovine Retinal Microvascular Endothelial Cell); test: VEGF-induced BRMEC proliferation, modified MTT assay; assay type: cell-based
Method: VEGF-induced BRMEC proliferation was measured using a modified MTT assay, BRMEC were plated at 3×10^3 onto a fibronectin/hyaluronic acid matrix in 96-well plates (Coming). Growth medium was added for two days, followed by serum free medium (SFM) overnight, then by test medium containing 0 or 25 ng/ml VEGF in 100 μl of SFM. After 24 hours at 37° C./5%CO2, 25 μl of MTT (3-(4,5-dimethylthiazol-2-yl)-2,5-diphenyl tetrazolium bromide) was added to each well and incubated for 4 hours. 100 μl of lysis buffer (20%SDS in 50:50 DMF:H2O+2.0% acetic acid and 0.05%HCl) was then added to each well, and the plates were incubated overnight at 37° C. and read (SPECTRAmax 190, Molecular Devices; Sunnyvale, Calif.) at 570 nm. For experiments utilizing AL06295, 25 ng/ml VEGF was combined with the compound at 0.1, 0.3, 1.0 or 3 μM.

choroidal NV = choroidal NV in a mouse model, topical administration; assay type: in vivo; conditions: previous findings
[3] = dose-response fashion, bovine retinal microvascular endothelial cell assay

COX-1, sequence (P23219 24-599): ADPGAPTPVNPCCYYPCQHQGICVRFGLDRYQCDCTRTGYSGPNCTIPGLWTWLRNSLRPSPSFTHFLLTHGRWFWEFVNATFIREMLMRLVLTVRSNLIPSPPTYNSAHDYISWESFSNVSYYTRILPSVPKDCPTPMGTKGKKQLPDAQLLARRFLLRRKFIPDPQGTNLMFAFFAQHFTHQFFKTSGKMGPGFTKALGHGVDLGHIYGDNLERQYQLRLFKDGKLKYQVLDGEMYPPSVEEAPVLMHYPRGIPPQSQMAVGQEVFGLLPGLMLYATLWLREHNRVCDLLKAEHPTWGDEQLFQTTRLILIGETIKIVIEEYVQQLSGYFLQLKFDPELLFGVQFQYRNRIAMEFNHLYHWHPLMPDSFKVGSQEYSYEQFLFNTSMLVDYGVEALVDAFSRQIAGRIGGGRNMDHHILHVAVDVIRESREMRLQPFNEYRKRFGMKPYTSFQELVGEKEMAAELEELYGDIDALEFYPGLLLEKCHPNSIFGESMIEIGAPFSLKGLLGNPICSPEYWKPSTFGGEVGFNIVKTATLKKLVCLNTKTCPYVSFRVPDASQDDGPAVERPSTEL

| Compound | activity of COX-1 enzyme (COX-1) | activity of COX-2 enzyme (COX-2) | VEGF induced capillary tube formation in BRMECs (total tube length per field of view) ([1]; all doses, SF medium plus VEGF, assessed 24 hrs later, FIG. 2) | VEGF-induced capillary tube formation [1, 3] | VEGF induced BRMEC proliferation ([2]; 1 and 3 μM doses, 25 ng/ml VEGF, 24 hours, FIG. 1) | VEGF-induced cell proliferation [2, 3] | choroidal NV (choroidal NV) |
| --- | --- | --- | --- | --- | --- | --- | --- |
| 2-amino-3-benzoylbenzene acetic acid [amfenac] | potently inhibit | potently inhibit | significantly and potently inhibit | inhibit | significantly reduce | inhibit |  |
| NC(=O)Cc1cccc(C(=O)c2ccccc2)c1N [nepafenac] |  |  |  |  |  |  | inhibited |

— patent US20030207941A1, “Method of treating vascular endothelial growth factor mediated vascular disorders” (priority 2002, published 2003)
